{
  "source": "patent US10772909B2",
  "about": "“System and method for insulin-mimetic of cartilage, bone, or osteochondral repair and piezoelectric composite scaffold” (New Jersey Institute of Technology, priority 2016, dated 2020)",
  "key": {"Human MSCs [1]": {"system": "Human MSCs", "assay": "Chondrogenesis culture: sGAG production (Blyscan)", "assay_type": "cell-based", "protocol": "(§1) Chondrogenesis Culture. Cryopreserved MSCs were thawed and expanded in GM until 70-80% confluent. Cells were trypsininzed and then seeded on 6 mm diameter scaffold disks at 1.76×10^5 cells/cm^2 and cultured for 28 days in GM, chondrogenic induction medium (CCM), or CCM without insulin, according to previously published methods. CCM consisted of DMEM high glucose containing 4 mM L-glutamine (Invitrogen, Grand Island, N.Y., USA), 0.1 μM dexamethasone (Sigma-Aldrich), 0.17 mM ascorbic acid-2-phosphate (Wako Chemicals, Richmond, Va., USA), 1% ITS+(6.25 µg/mL insulin, 6.25 µg/mL transferrin, 6.25 ng/mL selenous acid, 5.35 μg/ml linoleic acid and 1.25 mg of bovine serum albumin) Premix Culture Supplement (Corning, Corning, N.Y., USA), 1× antibiotic-antimycotic, 1 mM sodium pyruvate (Sigma-Aldrich), 0.35 mM proline (Sigma-Aldrich), and 10 ng/mL recombinant human transforming growth factor-beta3 (TGF-β3, ProSpec, Israel). CCM without insulin consisted of CCM where the 1% ITS+Premix Culture Supplement was substituted with 1% stock solution (6.25 μg/ml transferrin and 6.25 ng/ml selenous acid, 5.35 μg/ml lionleic acid (Sigma-Aldrich) and 1.25 mg of bovine serum albumin (Fisher Scientific). Na2WO4 was added to all media leading to final Na2WO4 concentrations of 0, 0.01, 0.1 and 1 mM. Samples were harvested and analyzed for sulfated glycosaminoglycans (sGAG), cell number and gene expression at day 14 and 28 and for collagen type II and immunostaining at day 28.\n(§2) Production of sGAG and cell number were determined. Samples were digested using papain (Sigma-Aldrich, Mo., USA) buffer overnight at 65 C. ° following manufacturer's protocol. The sGAG assay is used to measure the total sulfated proteoglycan content using Blyscan sGAG Assay Kit (Biocolor, UK). Cell lysate of samples (n=4 per group) and color reagent were combined in transparent 96-well plate and the absorbance at 656 nm was measured using a microplate spectrophotometer (EMax, Molecular Devices, Melville, N.Y., USA). sGAG concentration was determined relative to chondroitin sulfate standard curve. PicoGreen® ds DNA assay (Life Technologies) was used to determine the cell number. MSCs of known cell number were used as standards. Standards were prepared by lysing the cells using papain buffer. The cell lysate of samples and standards (n=4 per group) was mixed with an equal volume of Pico Green reagent. Fluorescence intensity was measured with a microplate reader ((FLX800, Biotek Instruments, Vt., USA)) at 480 nm excitation and 520 nm emission. A standard curve of known cell number was used to determine the sample cell number. GAG production was normalized to cell number."}, "Human MSCs [2]": {"system": "Human MSCs", "assay": "Chondrogenesis culture: cell number (PicoGreen)", "assay_type": "cell-based", "protocol": "as §1, §2"}, "aggrecan": {"system": "aggrecan", "assay": "Chondrogenesis culture: gene expression by RT-PCR, aggrecan", "assay_type": "cell-based, human", "details": "for aggrecan gene expression vs 0 and 1 mM groups: CCM without insulin", "protocol": "as §1\nGene expression was evaluated using quantitative reverse transcription (RT)-polymerase chain reaction (PCR) analysis. RT-PCR was performed with RNeasy Micro Kit and SYBR Green RT-PCR Kit (Qiagen; Valencia, Calif., USA) using the MX4000 detection system (Stratagene) according to the manufacturer's protocol. Relative gene expression of SOX-9, aggrecan and collagen type II were determined. Samples (n=4 per group) were harvested and digested using Lysis Buffer. RNA was isolated from the samples using RNeasy Micro Kit (Qiagen) including DNA digestion step (RNase Free DNase Set; Qiagen). The RNA quantity and integrity were determined by measuring the absorbance at 260 nm and the absorbance ratio of 260 nm/280 nm, respectively, using Nanodrop™ Spectrophotometer (Thermo Fisher Scientific). Quantitative PCR analysis was performed using QuantiTect SYBR Green supermix including the QuantiTect Primer Assays. The reverse transcription step ran for 30 minutes at 50° C., 15 minutes at 95° C. of PCR activation followed by forty cycle of amplification consisting of 15 s denaturation at 94° C., 30 s of annealing at 55° C., and 30 s of extension at 72° C. A melting curve analysis of the RT-PCR product was included for each reaction. Samples were analyzed in triplicate and the value of each gene was normalized to the reference gene ribosomal protein, large, P0 (RPLP0) for the same sample (ΔCT). Primers were purchased from Qiagen (Hs_ACAN, QT00001365; Hs_SOX9, QT00001498; Hs_COL2A1, QT00049518; and Hs_RPLP0 QT00075012)."}, "[3]": {"assay": "Sodium tungstate in the scaffold: cell and tissue growth, cytocompatibility", "assay_type": "cell-based", "details": "0.01-5 weight (wt.) % sodium tungstate in the scaffold"}, "[4]": {"system": "human peripheral blood lymphocytes", "details": "cited from earlier work"}, "[5]": {"details": "0.01 mM Na2WO4, CCM, day 28, p<0.05"}, "[6]": {"details": "1 mM Na2WO4, CCM without insulin, day 28"}},
  "note": "Read-outs that look alike come from different tables or passages of the source.",
  "data": [
    {"compound": "[Na+].[Na+].[O]=[W](=[O])([O-])[O-]", "note": "[Na2WO4, sodium tungstate]", "values": [
      {"measurement": "sGAG production, change between days 14 and 28", "setting": "Human MSCs [1]; 0.01 mM Na2WO4, CCM", "result": "significant increase in sGAG production"},
      {"measurement": "sGAG production vs 0 mM group", "setting": "Human MSCs [1]; 0.01 mM Na2WO4, CCM without insulin", "result": "higher than 0 mM group in CCM without insulin but not significantly"},
      {"measurement": "sGAG production vs all other groups", "setting": "Human MSCs [1]; 0.01 mM Na2WO4, CCM, day 28, p<0.005", "result": "higher sGAG production than all other groups"},
      {"measurement": "normalized sGAG to cell number vs 0 and 1 mM groups", "setting": "Human MSCs [1]; [5]", "result": "significantly higher"},
      {"measurement": "sGAG production vs 0 mM group", "setting": "Human MSCs [1]; 0.1 mM Na2WO4, CCM without insulin", "result": "higher than 0 mM group in CCM without insulin but not significantly"},
      {"measurement": "sGAG production vs GM alone", "setting": "Human MSCs [1]; 0.1 mM Na2WO4, GM, day 14", "result": "significantly higher"},
      {"measurement": "normalized sGAG to cell number vs 0.01 mM", "setting": "Human MSCs [1]; [6]", "result": "significantly lower normalized sGAG to cell number"},
      {"measurement": "sGAG vs all other groups", "setting": "Human MSCs [1]; [6]", "result": "significantly lower"},
      {"measurement": "cell number vs 0.1 mM", "setting": "Human MSCs [2]; [5]", "result": "significantly higher than 0.1 mM"},
      {"measurement": "cell number vs 0 mM", "setting": "Human MSCs [2]; 0.1 mM Na2WO4, GM, day 14", "result": "significantly higher"},
      {"measurement": "cell number vs other groups", "setting": "Human MSCs [2]; 1 mM Na2WO4, CCM", "result": "significantly lower"},
      {"measurement": "cell number vs all other groups", "setting": "Human MSCs [2]; [6]", "result": "significantly lower cell numbers"},
      {"measurement": "aggrecan gene expression vs 0 and 1 mM groups", "setting": "aggrecan; 0.01 mM Na2WO4, days 14 and 28", "result": "significantly higher"},
      {"measurement": "aggrecan gene expression vs 0 mM", "setting": "aggrecan; 0.01 mM Na2WO4, CCM, day 14, p<0.05", "result": "lower aggrecan expression"},
      {"measurement": "aggrecan gene expression vs 0 and 1 mM groups", "setting": "aggrecan; 0.1 mM Na2WO4, days 14 and 28", "result": "significantly higher"},
      {"measurement": "aggrecan gene expression vs all groups", "setting": "aggrecan; 0.1 mM Na2WO4, CCM, days 14 and 28", "result": "significantly higher"},
      {"measurement": "aggrecan gene expression", "setting": "aggrecan; 1 mM Na2WO4, CCM", "result": "lowest gene expression"},
      {"measurement": "aggrecan gene expression (chondrogenic genes)", "setting": "aggrecan; GM with Na2WO4", "result": "no significant upregulation of chondrogenic genes"},
      {"measurement": "cell and tissue growth and cytocompatibility", "setting": "[3]", "result": "promoted excellent cell and tissue growth results and cytocompatibility results"},
      {"measurement": "immune response", "setting": "[4]; 0.01 mM", "result": "did not stimulate an immune response"},
      {"measurement": "immune response", "setting": "[4]; 0.1 mM", "result": "did not stimulate an immune response"},
      {"measurement": "toxicity", "setting": "[4]; 1 mM dose", "result": "significant toxicity occurred"}
    ]}
  ]
}
